Test results: patent US12673947B2 (Cytosinlab Therapeutics Co., Ltd., priority 2020, dated 2026)

Columns and labels:
[1] = target: T1, FLT3 (Homo sapiens, UniProt P36888); assay: FLT3 kinase in vitro inhibitory activity experiment (Caliper mobility shift, conversion rate); assay type: biochemical; details: IC50 class, read-out: Enzyme activity FLT3
T1 construct: purchased Carna 08-145
T1 sequence (P36888 27-993): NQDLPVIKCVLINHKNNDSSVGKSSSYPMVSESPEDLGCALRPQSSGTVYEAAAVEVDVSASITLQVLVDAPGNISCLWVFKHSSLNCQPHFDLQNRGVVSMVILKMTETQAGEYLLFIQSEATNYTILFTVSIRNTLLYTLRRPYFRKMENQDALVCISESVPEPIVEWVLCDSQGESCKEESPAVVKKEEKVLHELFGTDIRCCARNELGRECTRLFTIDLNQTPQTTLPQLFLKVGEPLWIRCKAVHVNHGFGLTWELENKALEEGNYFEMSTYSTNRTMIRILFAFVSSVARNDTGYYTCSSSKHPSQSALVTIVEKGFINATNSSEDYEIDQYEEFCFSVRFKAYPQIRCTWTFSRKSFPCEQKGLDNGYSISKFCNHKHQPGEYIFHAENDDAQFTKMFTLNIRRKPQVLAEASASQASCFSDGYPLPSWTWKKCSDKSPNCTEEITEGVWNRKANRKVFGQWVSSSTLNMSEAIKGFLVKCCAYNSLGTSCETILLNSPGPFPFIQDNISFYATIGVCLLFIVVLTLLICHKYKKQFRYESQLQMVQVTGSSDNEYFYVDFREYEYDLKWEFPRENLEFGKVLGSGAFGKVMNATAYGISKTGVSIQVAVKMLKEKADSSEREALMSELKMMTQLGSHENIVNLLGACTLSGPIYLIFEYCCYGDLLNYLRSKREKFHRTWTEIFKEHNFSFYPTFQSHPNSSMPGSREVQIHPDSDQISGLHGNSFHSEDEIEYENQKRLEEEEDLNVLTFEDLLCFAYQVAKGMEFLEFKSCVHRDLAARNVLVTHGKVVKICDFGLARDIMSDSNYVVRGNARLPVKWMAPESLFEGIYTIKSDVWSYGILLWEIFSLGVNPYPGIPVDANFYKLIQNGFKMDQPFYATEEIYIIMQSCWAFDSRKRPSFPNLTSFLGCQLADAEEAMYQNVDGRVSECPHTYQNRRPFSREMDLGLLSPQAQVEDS
Procedure, shortened: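 FLT3 was pre-incubated with compound for 10 min at room temperature, then the reaction was started with ATP plus Kinase substrate 2 and run 30 min at room temperature before stop solution. Substrate conversion was read by Caliper mobility shift.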

[2] = test system: MV4;11 cells; assay: MV4;11 in vitro inhibition of proliferation assay (CellTiter-Glo, 72 hours); assay type: cell-based; details: Homo sapiens, MV4-11, 72 h, IC50 class, read-out: Inhibitory activity of cell proliferation MV4;11
Procedure, shortened: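 MV4;11 cells in IMDM/10% FBS, 2000 per well, were exposed to 9-point 3-fold DMSO dilutions from 10 uM (final DMSO 0.3%) in triplicate for 72 hours at 37° C., 5% CO2. Viability was read by CellTiter-Glo luminescence, and IC50 came from a four-parameter fit of inhibition.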

Row | SMILES | IC50 [1] [µM] | IC50 [2] [µM]
1 | CCc1nc2c(N)ncc(-c3cnn(-c4ccc(F)cc4F)c3)c2nc1N[C@@H]1CC[C@H](O)C1 [Compound 178] | ≤ 0.01 | ≤ 0.01
2 | CCc1nc2c(N)ncc(-c3cnn(-c4ccncn4)c3)c2nc1N[C@@H]1CC[C@H](O)C1 [Compound 179] | ≤ 0.01 | ≤ 0.01
3 | CCc1nc2c(N)ncc(-c3cnn(-c4ccnc(C)n4)c3)c2nc1N[C@@H]1CC[C@H](O)C1 [Compound 180, (1S,3R)-3-((5-amino-3-ethyl-8-(1-(2-methylpyrimidin-4-yl)-1H-pyrazol-4-yl)pyridino[3,4-b]pyrazin-2-yl)amino)cyclopentan-1-ol] | ≤ 0.01 | ≤ 0.01
4 | CCc1nc2c(N)ncc(-c3cnn(C4CCN(CC(C)(C)O)CC4)c3)c2nc1N[C@@H]1CC[C@H](O)C1 [Compound 181] | ≤ 0.01 | ≤ 0.01
5 | CCc1nc2c(N)ncc(-c3cnn(C4CCN(CC(C)C)CC4)c3)c2nc1N[C@@H]1CC[C@H](O)C1 [Compound 182] | ≤ 0.01 | ≤ 0.01
6 | CCc1nc2c(N)ncc(-c3cnn(C4CCN(C(C)CC)CC4)c3)c2nc1N[C@@H]1CC[C@H](O)C1 (some centres unmarked) [Compound 183] | ≤ 0.01 | ≤ 0.01
7 | CCc1nc2c(N)ncc(-c3cnn(C4CCN(C(CC)CC)CC4)c3)c2nc1N[C@@H]1CC[C@H](O)C1 [Compound 184] | ≤ 0.01 | ≤ 0.01
8 | CCc1nc2c(N)ncc(-c3cnn(C4CCN(C(=O)C(C)C)CC4)c3)c2nc1N[C@@H]1CC[C@H](O)C1 [Compound 185, 1-(4-(4-(5-amino-3-ethyl-2-(((1R,3S)-3-hydroxycyclopentyl)amino)pyridino[3,4-b]pyrazin-8-yl)-1H-pyrazol-1-yl)piperidin-1-yl)-2-methylpropyl-1-one] | ≤ 0.01 | ≤ 0.01
9 | CCc1nc2c(N)ncc(-c3cnn(C4CCN(S(C)(=O)=O)CC4)c3)c2nc1N[C@@H]1CC[C@H](O)C1 [Compound 186] | ≤ 0.01 | ≤ 0.01
10 | CCc1nc2c(N)ncc(-c3cnn(C4CCN(S(=O)(=O)C(C)C)CC4)c3)c2nc1N[C@@H]1CC[C@H](O)C1 [Compound 187, (1S,3R)-3-((5-amino-3-ethyl-8-(1-(1-(isopropylsulfonyl)piperidin-4-yl)-1H-pyrazol-4-yl)pyridino[3,4b]pyrazin-2-yl)amino)cyclopentan-1-ol] | ≤ 0.01 | ≤ 0.01
11 | CCc1nc2c(N)ncc(-c3cnn(C4CCN(S(=O)(=O)CC(C)C)CC4)c3)c2nc1N[C@@H]1CC[C@H](O)C1 [Compound 188] | ≤ 0.01 | ≤ 0.01
12 | CCc1nc2c(N)ncc(-c3cnn(C4CCN(C(=O)NC(C)C)CC4)c3)c2nc1N[C@@H]1CC[C@H](O)C1 [Compound 189] | ≤ 0.01 | ≤ 0.01
13 | CCc1nc2c(N)ncc(-c3cnn(C4CCN(C(=O)OC(C)(C)C)CC4)c3)c2nc1N[C@@H]1CC[C@H](O)C1 [Compound 190] | ≤ 0.01 | ≤ 0.01
14 | CCc1nc2c(N)ncc(-c3cnn(C4CCCCC4)c3)c2nc1N[C@@H]1CC[C@H](O)C1 [Compound 192] | ≤ 0.01 | ≤ 0.01
15 | CCc1nc2c(N)ncc(-c3cnn(C4CCC(F)(F)CC4)c3)c2nc1N[C@@H]1CC[C@H](O)C1 [Compound 193] | ≤ 0.01 | ≤ 0.01
16 | CCc1nc2c(N)ncc(-c3cnn(C)c3)c2nc1N[C@@H]1CC[C@H](O)C1 [Compound 194] | ≤ 0.01 | ≤ 0.01
17 | CCc1nc2c(N)ncc(-c3cnn(C(CC)CC)c3)c2nc1N[C@@H]1CC[C@H](O)C1 [Compound 195] | 0.01 to 0.1 | 0.01 to 0.1
18 | CCc1nc2c(N)ncc(-c3cnn(CCOC)c3)c2nc1N[C@@H]1CC[C@H](O)C1 [Compound 196] | ≤ 0.01 | 0.01 to 0.1
19 | CCc1nc2c(N)ncc(-c3cnn(CC(C)(C)O)c3)c2nc1N[C@@H]1CC[C@H](O)C1 [Compound 197] | ≤ 0.01 | 0.01 to 0.1
20 | CCc1nc2c(N)ncc(-c3cnn(CCO)c3)c2nc1N[C@@H]1CC[C@H](O)C1 [Compound 198] | ≤ 0.01 | 0.01 to 0.1
21 | CCc1nc2c(N)ncc(-c3cnn(C4COC4)c3)c2nc1N[C@@H]1CC[C@H](O)C1 [Compound 199] | ≤ 0.01 | ≤ 0.01
22 | CCc1nc2c(N)ncc(-c3cnn(CC4COC4)c3)c2nc1N[C@@H]1CC[C@H](O)C1 [Compound 200] | ≤ 0.01 | ≤ 0.01

Row | SMILES | IC50 [1] [µM] | IC50 [2] [µM]
23 | CCc1nc2c(N)ncc(-c3cnn(C(C)C)c3)c2nc1N[C@@H]1CC[C@H](O)C1 [Compound 201] | ≤ 0.01 | ≤ 0.01
24 | CCc1nc2c(N)ncc(-c3cnn(C4CC4)c3)c2nc1N[C@@H]1CC[C@H](O)C1 [Compound 202] | ≤ 0.01 | ≤ 0.01
25 | CCc1nc2c(N)ncc(-c3cn[nH]c3)c2nc1N[C@@H]1CC[C@H](O)C1 [Compound 203] | ≤ 0.01 | 0.01 to 0.1
26 | CCc1nc2c(N)ncc(-c3cnn(CC4CCN(C)CC4)c3)c2nc1N[C@@H]1CC[C@H](O)C1 [Compound 204] | ≤ 0.01 | ≤ 0.01
27 | CCOCC1(COCC)CCC(n2cc(-c3cnc(N)c4nc(CC)c(N[C@@H]5CC[C@H](O)C5)nc34)cn2)CC1 [Compound 205] | ≤ 0.01 | ≤ 0.01
28 | CCc1nc2c(N)ncc(-c3cnn(C4CCNCC4)c3)c2nc1NC1CCC(O)C1 (centres unmarked) [Compound 206] | ≤ 0.01 | 0.01 to 0.1
29 | CCc1nc2c(N)ncc(-c3cnn(C4CCN(CCO)CC4)c3)c2nc1N[C@@H]1CC[C@H](O)C1 [Compound 207, (1S,3R)-3-((5-amino-3-ethyl-8-(1-(1-(2-hydroxyethyl)piperidin-4-yl)-1H-pyrazol-4-yl)pyridino[3,4-b]pyrazin-2-yl)amino)cyclopentan-1-ol] | ≤ 0.01 | ≤ 0.01
30 | CCc1nc2c(N)ncc(-c3cnn(C4CCN(C5CCOCC5)CC4)c3)c2nc1N[C@@H]1CC[C@H](O)C1 [Compound 208] | ≤ 0.01 | ≤ 0.01
31 | CCc1nc2c(N)ncc(-c3cnn(C4CCN(C5COC5)CC4)c3)c2nc1N[C@@H]1CC[C@H](O)C1 [Compound 209] | ≤ 0.01 | ≤ 0.01
32 | CCc1nc2c(N)ncc(-c3cnn(C4CCN(C5CN(C)C5)CC4)c3)c2nc1N[C@@H]1CC[C@H](O)C1 [Compound 210] | ≤ 0.01 | ≤ 0.01
33 | CCc1nc2c(N)ncc(-c3cnn(C4CCN(C5CC5)CC4)c3)c2nc1N[C@@H]1CC[C@H](O)C1 [Compound 211] | ≤ 0.01 | ≤ 0.01
34 | CCc1nc2c(N)ncc(-c3cnn(C4CCN(C5CCC5)CC4)c3)c2nc1N[C@@H]1CC[C@H](O)C1 [Compound 212] | ≤ 0.01 | ≤ 0.01
35 | CCc1nc2c(N)ncc(-c3cnn(C4CCN(C5CCCC5)CC4)c3)c2nc1N[C@@H]1CC[C@H](O)C1 [Compound 213] | ≤ 0.01 | ≤ 0.01
36 | CCc1nc2c(N)ncc(-c3cnn(C4CCN(C5CCCCC5)CC4)c3)c2nc1N[C@@H]1CC[C@H](O)C1 [Compound 214] | ≤ 0.01 | ≤ 0.01
37 | CCc1nc2c(N)ncc(-c3cnn(C4CCN(C)CC4)c3)c2nc1N[C@@H]1CC[C@H](O)C1 [Compound 215] | ≤ 0.01 | ≤ 0.01
38 | CCc1nc2c(N)ncc(-c3cnn(C4CCN(CC)CC4)c3)c2nc1N[C@@H]1CC[C@H](O)C1 [Compound 216] | ≤ 0.01 | ≤ 0.01
39 | CCc1nc2c(N)ncc(-c3cnn(C4CCN(C(C)C)CC4)c3)c2nc1N[C@@H]1CC[C@H](O)C1 [Compound 217] | ≤ 0.01 | ≤ 0.01
40 | CCc1nc2c(N)ncc(-c3cnn(C4CCN(CC(F)F)CC4)c3)c2nc1N[C@@H]1CC[C@H](O)C1 [Compound 218] | ≤ 0.01 | ≤ 0.01
41 | CCc1nc2c(N)ncc(-c3cnn(C4CCN(CC(F)(F)F)CC4)c3)c2nc1N[C@@H]1CC[C@H](O)C1 [Compound 219] | ≤ 0.01 | ≤ 0.01
42 | [2H]C([2H])([2H])N1CCC(n2cc(-c3cnc(N)c4nc(CC)c(N[C@@H]5CC[C@H](O)C5)nc34)cn2)CC1 [Compound 220] | ≤ 0.01 | ≤ 0.01
43 | [2H]C([2H])([2H])C(N1CCC(n2cc(-c3cnc(N)c4nc(CC)c(N[C@@H]5CC[C@H](O)C5)nc34)cn2)CC1)C([2H])([2H])[2H] [Compound 221] | ≤ 0.01 | ≤ 0.01
